Assay results reported in publication PMC4104029, “Mechanism of Action of Compound-13: An α1-Selective Small Molecule Activator of AMPK” (Chemistry & Biology, 2014).
Read-outs that look alike come from different tables or passages of the source.

Assays:
[1] = biological target: T1, AMPKα1β1γ2 with β1 Δ1–185 (ΔCBD) (Homo sapiens, UniProt Q13131+Q9UGJ0); assay: AMPKα1β1γ2 mutagenesis, activation assay; assay type: biochemical; details: 1 μM C2; complex purified from COS1 cells
T1 construct: made in house; host or cells: COS1 cells (transient transfection, FLAG-M2 purification)
T1 sequence (Q13131 whole entry, stated change not applied): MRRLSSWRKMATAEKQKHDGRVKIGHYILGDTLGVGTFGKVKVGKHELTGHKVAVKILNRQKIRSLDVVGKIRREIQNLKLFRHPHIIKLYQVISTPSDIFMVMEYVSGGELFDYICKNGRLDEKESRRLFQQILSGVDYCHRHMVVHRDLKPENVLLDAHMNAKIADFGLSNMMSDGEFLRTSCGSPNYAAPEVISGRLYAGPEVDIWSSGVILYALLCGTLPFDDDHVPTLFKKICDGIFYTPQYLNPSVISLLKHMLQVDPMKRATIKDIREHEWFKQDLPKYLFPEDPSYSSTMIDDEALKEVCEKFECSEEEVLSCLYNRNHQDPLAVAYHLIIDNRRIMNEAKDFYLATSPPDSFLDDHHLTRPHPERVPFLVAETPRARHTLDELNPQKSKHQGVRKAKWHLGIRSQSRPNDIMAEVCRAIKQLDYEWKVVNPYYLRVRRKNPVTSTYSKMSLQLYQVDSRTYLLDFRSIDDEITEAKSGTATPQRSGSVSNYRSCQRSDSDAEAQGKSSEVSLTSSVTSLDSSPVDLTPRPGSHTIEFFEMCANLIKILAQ
T1 sequence (Q9Y478 186-270 partner): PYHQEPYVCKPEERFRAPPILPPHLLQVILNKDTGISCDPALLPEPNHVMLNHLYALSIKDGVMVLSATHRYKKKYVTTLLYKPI
T1 sequence (Q9UGJ0 whole entry, stated change not applied): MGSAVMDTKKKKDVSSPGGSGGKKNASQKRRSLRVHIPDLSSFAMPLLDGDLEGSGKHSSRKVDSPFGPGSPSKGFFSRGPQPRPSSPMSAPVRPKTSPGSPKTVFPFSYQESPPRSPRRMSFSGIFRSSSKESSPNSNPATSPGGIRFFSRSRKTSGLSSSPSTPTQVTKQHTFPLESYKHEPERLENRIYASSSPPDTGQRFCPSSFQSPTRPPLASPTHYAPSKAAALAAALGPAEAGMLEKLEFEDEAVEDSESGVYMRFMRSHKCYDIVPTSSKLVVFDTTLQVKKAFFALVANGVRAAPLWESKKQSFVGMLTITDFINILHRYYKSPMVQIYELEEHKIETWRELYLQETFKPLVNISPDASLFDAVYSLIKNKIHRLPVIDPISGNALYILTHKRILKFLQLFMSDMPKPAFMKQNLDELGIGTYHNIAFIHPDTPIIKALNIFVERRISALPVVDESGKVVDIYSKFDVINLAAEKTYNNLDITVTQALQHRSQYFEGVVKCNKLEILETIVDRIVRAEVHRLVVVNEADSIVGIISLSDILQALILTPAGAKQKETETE
Procedure: (§1) Figure 2 C2 Is a Partial Agonist of α2 Complexes and Selectively Protects α1 Complexes against Dephosphorylation by PP2C (A and B) Recombinant AMPKα1β1γ1 (A) or AMPKα2β1γ1 (B) was assayed in the presence of AMP (30 μM) and increasing concentrations of C2 (0–20 μM). Results are expressed as fold increase in activity relative to controls without ligand and represent the mean ± SD for three independent experiments. (C and D) The effects of C2 and AMP on dephosphorylation and inactivation of AMPKα1β1γ1 (C) and α2β1γ1 (D) by PP2Cα (present in all assay conditions). Results are expressed as a percentage of control reactions performed in the absence of Mg^2+ and represent the mean ± SD of three independent experiments. Representative blots of pT172 and total AMPKα are shown below the bar charts. […] Results are expressed as the fold increase in activity relative to controls in the absence of compound and represent the mean ± SD for three independent experiments. […]
(§2) Competitive elution of AMPKγ2 from ATP-Sepharose. […] Resin was pelleted at low speed and the resulting supernatant analysed for the presence of AMPKγ2 by SDS-PAGE and staining with colloidal Coomassie (Generon). […]

AMPKα1β1γ2 with γ2 R531G = biological target: T2, AMPKα1β1γ2 with γ2 R531G (Homo sapiens, UniProt Q13131+Q9UGJ0, R531G); assay: AMPKα1β1γ2 mutagenesis, activation assay; assay type: biochemical; details: 1 μM C2; complex purified from COS1 cells
T2 construct: made in house; host or cells: COS1 cells (transient transfection, FLAG-M2 purification)
T2 sequence (Q13131 whole entry): as the sequence (Q13131 whole entry, stated change not applied) above
T2 sequence (Q9Y478 whole entry partner): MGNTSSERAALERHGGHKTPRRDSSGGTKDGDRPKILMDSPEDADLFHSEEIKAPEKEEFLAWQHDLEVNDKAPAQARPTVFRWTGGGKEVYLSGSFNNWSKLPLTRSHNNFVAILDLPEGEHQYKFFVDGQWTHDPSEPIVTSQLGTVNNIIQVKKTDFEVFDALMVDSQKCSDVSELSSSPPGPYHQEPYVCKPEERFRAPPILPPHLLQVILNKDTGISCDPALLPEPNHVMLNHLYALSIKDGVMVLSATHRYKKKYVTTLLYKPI
T2 sequence (Q9UGJ0 whole entry R531G): as the sequence (Q9UGJ0 whole entry, stated change not applied) above, with R531G counted along it
Procedure: as §1, §2

[2] = test system: primary mouse hepatocytes (WT); assay: Lipid synthesis, [1-14C]acetate incorporation; assay type: cell-based; details: for IC50: Mus musculus, Hepatocyte
Procedure: Figure 5 C13 Inhibits Lipid Synthesis and Fatty Acid Esterification in Mouse Hepatocytes in an AMPK-Dependent Manner (A) Mouse hepatocytes were treated with the indicated concentrations of C13 and labeled with [1-^14C]acetate for 3 hr. A769662 (100 μM) and AICAR (0.5 mM) were included as positive controls. Rates of fatty acid and sterol synthesis were estimated by incorporation into saponifiable and nonsaponifiable lipids. Results are expressed as the mean acetate incorporated in micromoles per gram-hour ± SD and are representative of two independent experiments. (B) Mouse hepatocytes were treated with the indicated compounds for 30 min and labeled with media containing 0.5 mM palmitic acid (1 mCi⋅mmol^−1 [9,10-^3H]palmitic acid) for an additional 60 min. Incorporation into triglyceride was determined as described in Experimental Procedures and results are expressed as palmitate incorporated in micromoles per gram-hour ± SD and are representative of three independent experiments. (C and D) Mouse hepatocytes from WT or AMPK-null (AMPKα1^−/− -α2^−/−) mice were incubated with the indicated concentrations of C13 and labeled with [1-^14C]acetate for 3 hr. Rates of fatty acid and sterol synthesis were estimated from incorporation into saponifiable (C) and nonsaponifiable (D) lipids. Results are expressed as percentage WT vehicle and represent the mean ± SD for three independent experiments. (E) Hepatocytes were treated with the indicated concentrations of C13 for 3 hr, and lysates were blotted with the indicated antibodies.
Lipid synthesis was determined by labeling adherent cultures of primary hepatocytes with [1-^14C]acetate. After overnight culture, hepatocytes (5 × 10^5) were washed with warm PBS and allowed to rest for 3 hr in fresh M199. Cells were treated with vehicle (0.1% DMSO) or the indicated compounds and labeled with 1 mCi⋅mmol^−1 [1-^14C]acetate for 3 hr. Cells were washed with ice-cold PBS, gently scraped into 0.5 ml PBS and saponified in methanolic KOH at 80°C for 1 hr. Nonsaponifiable and saponifiable lipids were extracted with petroleum ether before and after acidification with HCl. Lipid fractions were washed with 5% HAc, dried using N2, and dissolved in scintillant for the determination of [^14C] incorporation. Lipogenesis in hepatocytes from AMPKβ1/β2-KO mice was determined in media containing [^3H]acetate (0.2 mCi⋅mmol^−1). After 4 hr labeling, total lipids were extracted using the method of [Bligh and Dyer (1959)], and incorporated [^3H] was determined by scintillation counting. The results are expressed as micromoles acetate incorporated per gram-hour.

| Structure (SMILES) | activation of mutant complex [1] | stimulation of mutant complex (AMPKα1β1γ2 with γ2 R531G) | reduction of lipid synthesis ([2]; 1 μM, WT cells) | IC50 ([2]; [14C]acetate, 3 hr, read-out: IC50, inhibition of lipid synthesis, nonsaponifiable lipids) [nM] | IC50 ([2]; [14C]acetate, 3 hr, read-out: IC50, inhibition of lipid synthesis, saponifiable lipids) [nM] | concentration of maximal effect on lipid synthesis ([2]; [14C]acetate, 3 hr) [µM] | potency relative to A769662 ([2]; similar inhibition with 3 μM C13 and 100 μM A769662) |
| --- | --- | --- | --- | --- | --- | --- | --- |
| O=P(O)(O)c1ccc(-c2cc(O)on2)o1 [Compound C2, 5-(5-hydroxyl-isoxazol-3-yl)-furan-2-phosphonic acid] | unaffected | failed to stimulate |  |  |  |  |  |
| CC(C)C(=O)OCOP(=O)(OCOC(=O)C(C)C)c1ccc(C2=NOC(=O)C2)o1 [Compound C13] |  |  | about 40% | 1500 | 1700 | 30 | ≈ 30 fold |
